In PubChem BioAssay AID248 (DTP/NCI, 2004):
Several values for one entry are separate records, joined by “and”; a condition that tells them apart may be missing. Equal values may be shown once. Toxic doses and inconclusive results are not listed. Cut-off read from the data, not from the text of the source: active = T/C of 150% or more; inactive = T/C below 125%.

Test system: L1210 leukemia ip in BDF1 mice, survival T/C
Assay: NCI In Vivo Anticancer Drug Screen. Data for tumor model L1210 Leukemia (intraperitoneal) in B6D2F1 (BDF1) mice
Settings: endpoint: mean survival time, higher = longer survival
Summary of the method: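 Value reflects the ratio of survival in compound-treated mice to survival in vehicle-treated controls, with both groups carrying the same transplanted tumor.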

[1] = dose: 100.0 mg/kg/injection, schedule: Q04DX002 (ip), vehicle: other
[2] = dose: 200.0 mg/kg/injection, schedule: Q04DX002 (ip), vehicle: other
[3] = dose: 400.0 mg/kg/injection, schedule: Q04DX002 (ip), vehicle: other
[4] = dose: 100.0 mg/kg/injection, schedule: Q04DX003 (ip), vehicle: saline with Tween-80
[5] = dose: 200.0 mg/kg/injection, schedule: Q04DX003 (ip), vehicle: saline with Tween-80
[6] = dose: 400.0 mg/kg/injection, schedule: Q04DX003 (ip), vehicle: saline with Tween-80
[7] = dose: 100.0 mg/kg/injection, schedule: Q01DX001 (ip), vehicle: carboxymethylcellulose (CMC)
[8] = dose: 200.0 mg/kg/injection, schedule: Q01DX001 (ip), vehicle: carboxymethylcellulose (CMC)
[9] = dose: 400.0 mg/kg/injection, schedule: Q01DX001 (ip), vehicle: carboxymethylcellulose (CMC)
[10] = dose: 100.0 mg/kg/injection, schedule: Q04DX003 (ip), vehicle: saline
[11] = dose: 200.0 mg/kg/injection, schedule: Q04DX003 (ip), vehicle: saline
[12] = dose: 400.0 mg/kg/injection, schedule: Q04DX003 (ip), vehicle: saline

Measured: T/C

CC(C)(C)C1([Si](C)(C)C)SCCCS1
inactive: [1] 114 % of control | [2] 108 % of control | [3] 101 % of control

c1ccc2cc3c(cc2c1)Nc1cc2ccccc2cc1N3
inactive: dose: 100.0 mg/kg/injection, schedule: Q01DX009 (ip), vehicle: saline with Tween-80 93 % of control | [4] 97 % of control | dose: 200.0 mg/kg/injection, schedule: Q01DX009 (ip), vehicle: saline with Tween-80 93 % of control | [5] 101 % of control | dose: 400.0 mg/kg/injection, schedule: Q01DX009 (ip), vehicle: saline with Tween-80 88 % of control | [6] 103 % of control

O=C(CS(=O)(=O)C1CCCCC1)C1CCCCC1
inactive: [4] 94 % of control | [5] 94 % of control | [6] 88 % of control

O=C(NCCCNC(=O)Nc1ccc(C2=NCC(O)CN2)cc1)Nc1ccc(C2=NCC(O)CN2)cc1 (stereo not given)
inactive: dose: 30.7 mg/kg/injection, schedule: Q01DX015 (ip), vehicle: methylcellulose (MC) 104 % of control | dose: 61.5 mg/kg/injection, schedule: Q01DX015 (ip), vehicle: methylcellulose (MC) 95 % of control

COc1ccc(C(=O)NC(=O)Nc2ccccc2)cc1
inactive: dose: 15.0 mg/kg/injection, schedule: Q01DX001 (ip), vehicle: saline 97 % of control | dose: 30.0 mg/kg/injection, schedule: Q01DX001 (ip), vehicle: saline 91 % of control | dose: 60.0 mg/kg/injection, schedule: Q01DX001 (ip), vehicle: saline 92 % of control

O=P(N=P(c1ccccc1)(c1ccccc1)c1ccccc1)(c1ccccc1)c1ccccc1
inactive: dose: 100.0 mg/kg/injection, schedule: Q01DX001 (ip), vehicle: saline 97 % of control | dose: 200.0 mg/kg/injection, schedule: Q01DX001 (ip), vehicle: saline 97 % of control | dose: 400.0 mg/kg/injection, schedule: Q01DX001 (ip), vehicle: saline 97 % of control

CC(C)=NSc1ccccc1
inactive: dose: 50.0 mg/kg/injection, schedule: Q01DX001 (ip), vehicle: Klucel (hydroxypropylcellulose) (HPC) 99 % of control | dose: 100.0 mg/kg/injection, schedule: Q01DX001 (ip), vehicle: Klucel (hydroxypropylcellulose) (HPC) 97 % of control | dose: 200.0 mg/kg/injection, schedule: Q01DX001 (ip), vehicle: Klucel (hydroxypropylcellulose) (HPC) 97 % of control

N#CCc1ccccc1C(=O)O
inactive: dose: 100.0 mg/kg/injection, schedule: Q01DX009 (ip), vehicle: gum acacia 105 % of control | dose: 100.0 mg/kg/injection, schedule: Q04DX003 (ip), vehicle: gum acacia 96 % of control | dose: 200.0 mg/kg/injection, schedule: Q01DX009 (ip), vehicle: gum acacia 94 % of control | dose: 200.0 mg/kg/injection, schedule: Q04DX003 (ip), vehicle: gum acacia 91 % of control | dose: 400.0 mg/kg/injection, schedule: Q01DX009 (ip), vehicle: gum acacia 88 % of control | dose: 400.0 mg/kg/injection, schedule: Q04DX003 (ip), vehicle: gum acacia 97 % of control

CCCCCCCCCCCCCCCC[N+]1(C)CCC[N+](C)(CCCCCCCCCCCCCCCC)CC1 (stereo not given)
inactive: dose: 100.0 mg/kg/injection, schedule: Q01DX001 (ip), vehicle: other 111 % of control and 90 % of control | [1] 94 % of control and 106 % of control | dose: 200.0 mg/kg/injection, schedule: Q01DX001 (ip), vehicle: other 96 % of control and 90 % of control | [2] 97 % of control and 110 % of control | dose: 400.0 mg/kg/injection, schedule: Q01DX001 (ip), vehicle: other 96 % of control and 90 % of control | [3] 98 % of control and 106 % of control

COc1ccc2c(c1OC(C)=O)-c1cc(OC(C)=O)cc3c1C(C2)N(C)CC3 (stereo not given)
inactive: dose: 25.0 mg/kg/injection, schedule: Q04DX003 (ip), vehicle: DMSO 93 % of control | dose: 50.0 mg/kg/injection, schedule: Q04DX003 (ip), vehicle: DMSO 95 % of control | dose: 100.0 mg/kg/injection, schedule: Q04DX003 (ip), vehicle: DMSO 106 % of control

O=c1[nH]cnc2ncn(Cc3ccccc3)c12
inactive: dose: 12.5 mg/kg/injection, schedule: Q04DX002 (ip), vehicle: Klucel (hydroxypropylcellulose) (HPC) 115 % of control | dose: 25.0 mg/kg/injection, schedule: Q04DX002 (ip), vehicle: Klucel (hydroxypropylcellulose) (HPC) 88 % of control | dose: 50.0 mg/kg/injection, schedule: Q04DX002 (ip), vehicle: Klucel (hydroxypropylcellulose) (HPC) 102 % of control

C=CCC1CCCCC1
inactive: [7] 104 % of control | [8] 105 % of control | [9] 104 % of control

CCOC(=O)CCC(NC(=O)C1CSC(C)(C)N1C=O)C(=O)OCC (stereo not given)
inactive: [10] 104 % of control | [11] 93 % of control | [12] 98 % of control

CCCCOC(=O)COc1cc(Cl)c(Cl)cc1Cl
inactive: dose: 100.0 mg/kg/injection, schedule: Q04DX002 (ip), vehicle: saline with Tween-80 93 % of control | dose: 200.0 mg/kg/injection, schedule: Q04DX002 (ip), vehicle: saline with Tween-80 104 % of control

O=C(O)/C=C\C(=O)Nc1ccccc1NC(=O)/C=C/C(=O)O
inactive: dose: 100.0 mg/kg/injection, schedule: Q01DX009 (ip), vehicle: saline 96 % of control | dose: 200.0 mg/kg/injection, schedule: Q01DX009 (ip), vehicle: saline 94 % of control | dose: 400.0 mg/kg/injection, schedule: Q01DX009 (ip), vehicle: saline 91 % of control

NC(=O)SCC(N)C(=O)O (stereo not given)
inactive: dose: 50.0 mg/kg/injection, schedule: Q01DX001 (ip), vehicle: carboxymethylcellulose (CMC) 101 % of control | [7] 90 % of control | [10] 104 % of control | [8] 95 % of control | [11] 110 % of control | [9] 101 % of control | [12] 116 % of control

O=[N+]([O-])c1ccc2cnn(CCO)c2c1
inactive: [7] 101 % of control | [8] 113 % of control | [9] 101 % of control

CC(=O)C(C(C)=O)C(=O)c1ccccc1
inactive: dose: 222.0 mg/kg/injection, schedule: Q01DX Z (ip), vehicle: saline 100 % of control | dose: 333.0 mg/kg/injection, schedule: Q01DX Z (ip), vehicle: saline 90 % of control | dose: 500.0 mg/kg/injection, schedule: Q01DX Z (ip), vehicle: saline 103 % of control

CCCCCCC(C)CCCCCCCCNCCOC(=O)c1ccc(N)cc1 (stereo not given)
inactive: dose: 75.0 mg/kg/injection, schedule: Q01DX001 (ip), vehicle: saline 102 % of control | dose: 150.0 mg/kg/injection, schedule: Q01DX001 (ip), vehicle: saline 104 % of control

C=CCOc1cc2c(ccc1=O)-c1c(cc(OC)c(OC)c1OC)CCC2NC(C)=O (stereo not given)
inactive: [7] 104 % of control | [8] 106 % of control | [9] 104 % of control
